Source: patent US10669269B2, “Substituted N-(1H-indazol-4-yl)imidazo[1,2-a]pyridine-3-carboxamide compounds as type III receptor tyrosine kinase inhibitors” (ARRAY BIOPHARMA INC., priority 2010, dated 2020)
pIC50: −log10 of the molar value. Structures can show the parent of a compound that is named as a salt.

Experiments:
cFMS = target: T1, cFMS (Homo sapiens, UniProt P07333); test: cFMS Cell-Based Assay (Example C); settings: averaged IC50; phospho-cFMS in THP-1 cells stimulated with 250 ng/mL recombinant human MCSF; read-out: cFMS Cell ELISA IC50
T1 construct: THP-1 cells (human acute monocytic leukemia cell line) were serum-starved for 4 hours; endogenous in cells; host or cells: THP-1 cells (human acute monocytic leukemia cell line)
T1 sequence (P07333 20-972): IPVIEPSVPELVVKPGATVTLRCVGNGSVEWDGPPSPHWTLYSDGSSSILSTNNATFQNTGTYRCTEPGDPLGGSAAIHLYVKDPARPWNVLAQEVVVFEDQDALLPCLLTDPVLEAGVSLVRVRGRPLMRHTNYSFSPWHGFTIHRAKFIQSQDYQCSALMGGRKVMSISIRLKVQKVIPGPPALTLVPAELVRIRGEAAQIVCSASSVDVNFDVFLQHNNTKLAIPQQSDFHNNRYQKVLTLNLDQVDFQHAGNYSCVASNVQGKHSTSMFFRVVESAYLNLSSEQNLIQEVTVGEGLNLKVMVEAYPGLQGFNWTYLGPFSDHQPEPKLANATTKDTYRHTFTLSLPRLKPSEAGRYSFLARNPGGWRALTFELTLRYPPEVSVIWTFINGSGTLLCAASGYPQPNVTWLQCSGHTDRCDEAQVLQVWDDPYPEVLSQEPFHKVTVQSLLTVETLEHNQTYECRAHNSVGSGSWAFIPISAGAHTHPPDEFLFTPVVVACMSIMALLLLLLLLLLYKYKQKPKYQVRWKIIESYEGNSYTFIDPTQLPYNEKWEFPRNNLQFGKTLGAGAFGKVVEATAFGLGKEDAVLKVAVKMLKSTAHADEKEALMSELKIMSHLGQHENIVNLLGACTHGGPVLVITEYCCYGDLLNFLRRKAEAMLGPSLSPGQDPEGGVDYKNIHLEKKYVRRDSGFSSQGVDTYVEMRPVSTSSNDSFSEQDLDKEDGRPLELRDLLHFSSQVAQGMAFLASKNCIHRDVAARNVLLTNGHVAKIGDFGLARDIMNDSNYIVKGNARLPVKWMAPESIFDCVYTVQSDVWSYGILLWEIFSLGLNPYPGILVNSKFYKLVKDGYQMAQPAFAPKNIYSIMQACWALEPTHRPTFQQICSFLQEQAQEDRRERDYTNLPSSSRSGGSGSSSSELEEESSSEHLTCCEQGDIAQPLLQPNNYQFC
Outline: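 Phosphotyrosine on cFMS, captured from lysates and quantified by ELISA, reads receptor activation after 1 min of 250 ng/mL human MCSF. Beforehand, THP-1 cells were serum-starved for 4 h and exposed to compound for 1 h (9 points, 3-fold, typically up to 5,000 nM). IC50 from a 4-parameter logistic fit as 50 percent of control.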

PDGFR beta [1] = target: T2, PDGFR beta (Homo sapiens, UniProt P09619); test: Phospho PDGFR Cell Assay, sandwich ELISA (Example A); type: cell-based; settings: averaged IC50, PDGFR beta phosphorylation in HS27 human fibroblast cell line, PDGF-BB stimulation 5 minutes
T2 construct: endogenous in cells; host or cells: HS27 human fibroblast cell line
T2 sequence (P09619 33-1106): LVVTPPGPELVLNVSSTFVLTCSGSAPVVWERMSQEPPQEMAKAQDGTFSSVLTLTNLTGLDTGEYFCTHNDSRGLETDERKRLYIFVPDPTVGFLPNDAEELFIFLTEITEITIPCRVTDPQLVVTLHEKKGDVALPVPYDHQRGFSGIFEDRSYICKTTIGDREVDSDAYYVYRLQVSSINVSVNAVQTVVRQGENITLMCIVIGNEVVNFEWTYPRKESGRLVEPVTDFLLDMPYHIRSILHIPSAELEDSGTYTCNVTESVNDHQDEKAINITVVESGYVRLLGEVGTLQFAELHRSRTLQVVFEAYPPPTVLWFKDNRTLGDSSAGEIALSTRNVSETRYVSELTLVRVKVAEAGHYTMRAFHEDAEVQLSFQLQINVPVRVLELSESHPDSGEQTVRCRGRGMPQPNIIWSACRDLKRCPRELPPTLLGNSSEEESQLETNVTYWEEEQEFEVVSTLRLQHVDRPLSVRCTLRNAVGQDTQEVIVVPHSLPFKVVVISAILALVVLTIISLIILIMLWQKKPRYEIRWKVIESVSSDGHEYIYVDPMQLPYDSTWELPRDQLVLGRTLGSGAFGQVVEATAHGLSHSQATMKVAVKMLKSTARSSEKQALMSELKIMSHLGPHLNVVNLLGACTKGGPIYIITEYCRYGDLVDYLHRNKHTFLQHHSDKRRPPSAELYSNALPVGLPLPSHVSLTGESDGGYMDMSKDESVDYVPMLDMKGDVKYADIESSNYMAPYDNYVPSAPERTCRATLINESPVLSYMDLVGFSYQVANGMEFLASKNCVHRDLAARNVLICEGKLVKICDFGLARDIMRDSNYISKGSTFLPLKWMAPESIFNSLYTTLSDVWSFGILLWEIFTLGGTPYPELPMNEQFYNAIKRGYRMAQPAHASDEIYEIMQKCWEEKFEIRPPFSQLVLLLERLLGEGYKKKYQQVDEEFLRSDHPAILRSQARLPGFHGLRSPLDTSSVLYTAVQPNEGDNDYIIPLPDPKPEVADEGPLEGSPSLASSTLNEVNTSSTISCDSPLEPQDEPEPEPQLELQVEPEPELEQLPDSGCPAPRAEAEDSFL
Procedure: Compounds were screened for inhibition of PDGFR beta phosphorylation in the HS27 human fibroblast cell line. Cells were seeded into a 96 well tissue culture plate, then incubated overnight in a 37° C., 5% CO2 incubator. The following day, cells were treated for one hour with test compound dilutions. After stimulation with PDGF-BB ligand for 5 minutes, cells were lysed and added to a sandwich ELISA plate from R&D Systems to detect levels of phospho PDGFR beta. A standard 4-parameter logistic model was fit to the inhibitor dose response curves, with the IC50 being defined as the concentration of inhibitor giving 50 percent of control (POC).

c-KIT = target: T3, c-KIT (Homo sapiens, UniProt P10721); test: c-KIT Cell-Based Assay (Example D); settings: averaged IC50; phospho-c-KIT in M-07e cells stimulated with 150 ng/ml recombinant human SCF; read-out: cKIT Cell ELISA IC50
T3 construct: M-07e cells (human acute megakaryoblastic leukemia cell line) were serum-starved for 4 hours; endogenous in cells; host or cells: M-07e cells (human acute megakaryoblastic leukemia cell line)
T3 sequence (P10721 26-976): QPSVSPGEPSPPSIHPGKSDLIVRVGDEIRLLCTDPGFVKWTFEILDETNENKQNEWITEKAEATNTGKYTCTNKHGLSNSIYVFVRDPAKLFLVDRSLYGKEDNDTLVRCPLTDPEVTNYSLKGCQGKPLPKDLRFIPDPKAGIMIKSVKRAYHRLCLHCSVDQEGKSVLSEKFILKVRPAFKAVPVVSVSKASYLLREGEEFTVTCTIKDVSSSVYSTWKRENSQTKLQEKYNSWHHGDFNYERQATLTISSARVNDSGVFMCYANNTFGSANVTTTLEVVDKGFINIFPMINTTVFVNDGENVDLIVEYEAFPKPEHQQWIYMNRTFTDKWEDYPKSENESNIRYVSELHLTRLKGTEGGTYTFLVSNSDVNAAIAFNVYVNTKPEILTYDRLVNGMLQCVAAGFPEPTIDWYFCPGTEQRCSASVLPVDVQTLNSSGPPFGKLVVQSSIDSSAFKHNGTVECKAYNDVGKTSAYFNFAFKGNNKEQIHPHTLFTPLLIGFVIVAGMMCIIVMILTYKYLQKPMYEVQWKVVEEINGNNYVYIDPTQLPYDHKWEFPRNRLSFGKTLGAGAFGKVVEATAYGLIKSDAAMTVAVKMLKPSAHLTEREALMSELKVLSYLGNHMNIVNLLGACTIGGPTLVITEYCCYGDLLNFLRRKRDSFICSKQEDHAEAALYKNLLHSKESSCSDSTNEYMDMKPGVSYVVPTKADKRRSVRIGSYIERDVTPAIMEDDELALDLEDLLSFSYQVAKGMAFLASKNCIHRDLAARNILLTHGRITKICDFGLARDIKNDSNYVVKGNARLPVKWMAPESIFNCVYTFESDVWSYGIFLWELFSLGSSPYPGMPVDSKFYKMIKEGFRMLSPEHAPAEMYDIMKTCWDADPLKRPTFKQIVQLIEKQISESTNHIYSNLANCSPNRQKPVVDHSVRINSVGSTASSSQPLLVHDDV
Outline: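 Phospho-c-KIT ELISA readout, calibrated with purified phospho-SCF R, gave IC50 (4-parameter fit, 50% of control). Before lysis, M-07e cells were starved 4 h, exposed 1 h to a 9-point 3-fold series (highest usually 5,000 nM), and stimulated with 150 ng/ml SCF for 4 min.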

PDGFR beta [2] = target: T2, PDGFR beta; test: Phospho PDGFR LICOR Cell Assay (Example B); type: cell-based; settings: averaged IC50; PDGFR beta phosphorylation in HS27 human fibroblast cell line, PDGF-BB stimulation 10 minutes, normalized to total ERK
Outline: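 Read-out is in-cell phospho-PDGFRβ/total-ERK infrared immunofluorescence in HS27 fibroblasts. Cells got 1 h compound exposure before a 10 min PDGF-BB challenge. A 4-parameter logistic fit gave IC50 as the concentration yielding 50 percent of control.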

| SMILES | pIC50 (cFMS) | pIC50 (PDGFR beta [1]) | pIC50 (c-KIT) | pIC50 (PDGFR beta [2]) |
| --- | --- | --- | --- | --- |
| Cc1nn(Cc2cccc(C(C)C)n2)c2cccc(NC(=O)c3cnc4cc(OCCN5CCOCC5)ccn34)c12 [Example 1, N-(1-((6-isopropylpyridin-2-yl)methyl)-3-methyl-1H-indazol-4-yl)-7-(2-morpholinoethoxy)imidazo[1,2-a]pyridine-3-carboxamide] | 7.79 | 7.53 | 7.27 | 7.89 |
| CCN1CCN(CCOc2ccn3c(C(=O)Nc4cccc5c4c(C)nn5Cc4cccc(C(C)C)n4)cnc3c2)CC1 [Example 2, 7-(2-(4-Ethylpiperazin-1-yl)ethoxy)-N-(1-((6-isopropylpyridin-2-yl)methyl)-3-methyl-1H-indazol-4-yl)imidazo[1,2-a]pyridine-3-carboxamide] | 7.56 | 8.03 | 7.39 | 7.63 |
| Cc1nn(Cc2cccc(C(C)C)n2)c2cccc(NC(=O)c3cnc4cc(OCCN5CC6(CNC6)C5)ccn34)c12 [Example 3, 7-(2-(2,6-diazaspiro[3.3]heptan-2-yl)ethoxy)-N-(1-((6-isopropylpyridin-2-yl)methyl)-3-methyl-1H-indazol-4-yl)imidazo[1,2-a]pyridine-3-carboxamide trihydrochloride] | 7.15 | 6.86 | 6.75 | 8.00 |
| Cc1nn(Cc2cccc(C(C)C)n2)c2cccc(NC(=O)c3cnc4cc(OCCN5CC6(CN(C)C6)C5)ccn34)c12 [Example 4, N-(1-((6-isopropylpyridin-2-yl)methyl)-3-methyl-1H-indazol-4-yl)-7-(2-(6-methyl-2,6-diazaspiro[3.3]heptan-2-yl)ethoxy)imidazo[1,2-a]pyridine-3-carboxamide] | 7.53 | 7.55 | 7.09 | 7.97 |
| Cc1nn(Cc2cccc(C(C)C)n2)c2cccc(NC(=O)c3cnc4cc(OCCN5CC6(COC6)C5)ccn34)c12 [Example 5, 7-(2-(2-oxa-6-azaspiro[3.3]heptan-6-yl)ethoxy)-N-(1-((6-isopropylpyridin-2-yl)methyl)-3-methyl-1H-indazol-4-yl)imidazo[1,2-a]pyridine-3-carboxamide] | 7.55 | 7.69 | 7.08 | 7.66 |
| Cc1nn(Cc2cccc(C(C)C)n2)c2cccc(NC(=O)c3cnc4cc(OCCN5CCN(C(C)C)CC5)ccn34)c12 [Example 6, 7-(2-(4-Isopropylpiperazin-1-yl)ethoxy)-N-(1-((6-isopropylpyridin-2-yl)methyl)-3-methyl-1H-indazol-4-yl)imidazo[1,2-a]pyridine-3-carboxamide] | 7.39 | 7.47 | 7.24 | 8.20 |
| Cc1nn(Cc2csc(C(C)C)n2)c2cccc(NC(=O)c3cnc4cc(OCCN5CC6(COC6)C5)ccn34)c12 [Example 14, 7-(2-(2-oxa-6-azaspiro[3.3]heptan-6-yl)ethoxy)-N-(1-((2-isopropylthiazol-4-yl)methyl)-3-methyl-1H-indazol-4-yl)imidazo[1,2-a]pyridine-3-carboxamide] | 7.69 | 7.42 | 7.02 | 7.44 |
| Cc1cc(C)nc(Cn2nc(C)c3c(NC(=O)c4cnc5cc(OCCN6CCN(C)[C@@H](C)C6)ccn45)cccc32)c1 [Example 34, (S)-7-(2-(3,4-dimethylpiperazin-1-yl)ethoxy)-N-(1-((4,6-dimethylpyridin-2-yl)methyl)-3-methyl-1H-indazol-4-yl)imidazo[1,2-a]pyridine-3-carboxamide] | – | ≤ 6.00 | – | 5.78 |
| Cc1cccc(CCn2nc(C)c3c(NC(=O)c4cnc5cc(OCCN6CCN(C)[C@@H](C)C6)ccn45)cccc32)n1 [Example 42, (S)-7-(2-(3,4-dimethylpiperazin-1-yl)ethoxy)-N-(3-methyl-1-(2-(6-methylpyridin-2-yl)ethyl)-1H-indazol-4-yl)imidazo[1,2-a]pyridine-3-carboxamide] | – | ≤ 6.00 | – | 5.32 |
| Cc1cccc(Cn2nc(C)c3c(NC(=O)c4cnc5cc(C(C)NCCO)ccn45)cccc32)n1 (centres unmarked) [Example 75, 7-(1-(2-hydroxyethylamino)ethyl)-N-(3-methyl-1-((6-methylpyridin-2-yl)methyl)-1H-indazol-4-yl)imidazo[1,2-a]pyridine-3-carboxamide] | 6.37 | ≤ 6.00 | 5.30 | – |
| Cc1cccc(Cn2nc(C)c3c(NC(=O)c4cnc5cc(C(C)O)ccn45)cccc32)n1 (centres unmarked) [Example 76, 7-(1-hydroxyethyl)-N-(3-methyl-1-((6-methylpyridin-2-yl)methyl)-1H-indazol-4-yl)imidazo[1,2-a]pyridine-3-carboxamide] | 7.33 | ≤ 6.00 | 5.30 | – |
| Cc1cccc(Cn2nc(C)c3c(NC(=O)c4cnc5cc(CCN6CCCC6)ccn45)cccc32)n1 [Example 77, N-(3-methyl-1-((6-methylpyridin-2-yl)methyl)-1H-indazol-4-yl)-7-(2-(pyrrolidin-1-yl)ethyl)imidazo[1,2-a]pyridine-3-carboxamide] | 7.11 | ≤ 6.00 | 5.30 | – |
| CC(=O)c1ccn2c(C(=O)Nc3cccc4c3c(C)nn4Cc3cccc(C)n3)cnc2c1 [Example 79, 7-acetyl-N-(3-methyl-1-((6-methylpyridin-2-yl)methyl)-1H-indazol-4-yl)imidazo[1,2-a]pyridine-3-carboxamide] | 7.24 | ≤ 6.00 | 5.36 | – |
| COCCOc1ccn2c(C(=O)Nc3cccc4c3c(C)nn4CC3CCCCO3)cnc2c1 (centres unmarked) [Example 82, 7-(2-methoxyethoxy)-N-(3-methyl-1-((tetrahydro-2H-pyran-2-yl)methyl)-1H-indazol-4-yl)imidazo[1,2-a]pyridine-3-carboxamide] | 6.91 | 6.51 | 6.34 | – |
| COCCOc1ccn2c(C(=O)Nc3cccc4c3c(C)nn4CC3CCOCC3)cnc2c1 [Example 83, 7-(2-methoxyethoxy)-N-(3-methyl-1-((tetrahydro-2H-pyran-4-yl)methyl)-1H-indazol-4-yl)imidazo[1,2-a]pyridine-3-carboxamide] | 6.27 | ≤ 6.00 | 5.30 | – |
| COCCOc1ccn2c(C(=O)Nc3cccc4c3c(C)nn4CC3CC3)cnc2c1 [Example 84, N-(1-(cyclopropylmethyl)-3-methyl-1H-indazol-4-yl)-7-(2-methoxyethoxy)imidazo[1,2-a]pyridine-3-carboxamide] | 6.13 | ≤ 6.00 | 5.30 | – |
| O=C(Nc1cccc2c1cnn2Cc1ccccc1)c1cnc2cc(O)ccn12 [Example 92, N-(1-benzyl-1H-indazol-4-yl)-7-hydroxyimidazo[1,2-a]pyridine-3-carboxamide] | 7.59 | 6.86 | 6.69 | – |
| COCCOc1ccn2c(C(=O)Nc3cccc4c3cnn4C[C@@H]3CCCN(C(=O)OC(C)(C)C)C3)cnc2c1 [Example 117, (R)-tert-butyl 3-((4-(7-(2-methoxyethoxy)imidazo[1,2-a]pyridine-3-carboxamido)-1H-indazol-1-yl)methyl)piperidine-1-carboxylate] | 6.77 | 7.26 | 6.90 | – |
| COCCOc1ccn2c(C(=O)Nc3cccc4c3cnn4CC3CN(C(=O)OC(C)(C)C)CCO3)cnc2c1 (centres unmarked) [Example 123, tert-butyl 2-((4-(7-(2-methoxyethoxy)imidazo[1,2-a]pyridine-3-carboxamido)-1H-indazol-1-yl)methyl)morpholine-4-carboxylate] | 6.42 | 6.79 | 6.59 | – |
| O=C(Nc1cccc2c1cnn2Cc1ccccc1)c1cnc2ccc(Br)cn12 [Example 155, N-(1-benzyl-1H-indazol-4-yl)-6-bromoimidazo[1,2-a]pyridine-3-carboxamide] | 6.94 | 6.55 | 7.12 | – |
| O=C(Nc1cccc2c1cnn2Cc1ccccc1)c1cnc2cc(C(O)CO)ccn12 (centres unmarked) [Example 157, N-(1-benzyl-1H-indazol-4-yl)-7-(1,2-dihydroxyethyl)imidazo[1,2-a]pyridine-3-carboxamide] | 6.98 | 6.56 | 6.63 | – |
| O=C(Nc1cccc2c1cnn2Cc1ccccc1)c1cnc2cc(Br)ccn12 [Example 161, N-(1-benzyl-1H-indazol-4-yl)-7-bromoimidazo[1,2-a]pyridine-3-carboxamide] | 7.23 | 6.63 | 7.37 | – |
